Entries after “also recorded” stand apart in the source; their conditions may differ.
Columns and labels:
[1] = tested on: ATII cells and BALF of IL-17A treated mice; experiment: IL-17A-induced lung injury in mice; type: in vivo, mouse; details: for A2EC p53, PAI-1 and apoptosis: WT mice exposed to IL-17A
Method: IL-17A is induced in passive tobacco smoke (PTS) exposed lung injury. […] Further, IL-17A induced ^p15Sp53 was inhibited following treatment of mice CSP7 when compared with those treated with saline and control peptide. To further test whether IL-17A induced ^p15Sp53 alters PAI-1 expression and ATII apoptosis, ATII cells of IL-17A treated mice for PAI-1 and apoptotic markers were analyzed. IL-17A induced the expression of PAI-1 and cl.Cas-3, and inhibited Sirt-1 expression in ATII cells. […] In addition, CSP7 treatment found to inhibit serine phosphorylation of p53 by neutralizing elevated IL-17A due to PTS exposure.
To test the importance of miR-34a mediated deacetylation of p53 IL-17A or PTS induced lung injury, miR34a conditional knockout mice were treated with tamoxifen. miR34a conditional knockout mice treated with IL-17A (3 μg/mice) was administered with CSP7 and CP a day later. ATII cells isolated from these mice were screened for PAI-1, Sirt-1 and apoptotic markers. […] Further, CSP7 treatment had little effect in miR-34a^cKo mice since these mice resist IL-17A or PTS injury.

[2] = mice; cited from earlier work
AECs from COPD lungs = AECs from COPD lungs treated in vitro for 48 h; type: cell-based, human
Method: Primary Airway Epithelial Cells (AECs); Normal, Human (ATCC® PCS-301-010™) and Primary Airway Epithelial Cells; COPD (ATCC® PCS-301-013™) were obtained from the ATCC and cultured in Airway Cell Basal Medium with glutamine, Extract P, HLL Supplement, and AEC Supplement. containing and 1% penicillin-streptomycin. The cells were maintained at 37° C. in a humidified atmosphere at 5% CO2. All media, supplements, and antibiotics were purchased from ATCC.
CSP7 and CP were dissolved in DMSO and diluted in HBSS for working concentration of 300 µg/2 ml. These peptides were used for the treatment of COPD in vitro and IP injection of mice. For nasal insufflation, the peptides were formulated as follows: 0.579 mg/ml of CSP7/CP was added to 15.456 mg/ml of lactose monohydrate in phosphate buffered saline and the pH was adjusted to 8.4 to give a clear solution. The solution was filtered through a 0.22-micron syringe filter (Bhandary et al. supra; Tiwari et al., supra).
The cells were lysed with RIPA buffer (Pierce, USA) containing protease inhibitor cocktail (Roche, Germany) and phosphatase inhibitor cocktail (Sigma-Aldrich, USA) on ice for 30 min. After centrifugation at 12,000×g and 4° C. for 20 min, the supernatants were collected. The protein concentrations were determined using the BCA protein assay kit (Pierce, USA). Cell lysates were mixed with 5×SDS-PAGE sample buffer and boiled for 5 min. Thirty micrograms of protein was subjected to 10% SDS-PAGE electrophoresis and transferred to nitrocellulose membranes. The membranes were blocked with 5% milk and then incubated at 4° C. for 16 h with the following diluted primary antibodies (Tiwari et al., supra). The blots were then washed and probed with horseradish peroxidase-conjugated secondary IgG antibodies. The bound antibodies were visualized using SuperSignal™ Maximum Sensitivity Substrate (Thermo Fisher Scientific, USA). For normalization, the membranes were stripped with Restore Western blot stripping buffer and incubated with the following primary antibodies: anti-ERK (1:1000), anti-MUC5AC (1:1000), anti-HDAC6(1:1000), anti-SPDEF(1:1000), anti-FOXA2(1:1000), anti-FOXA3 (1:1000) anti-LC3(1:1000), anti-Beclin1(1:1000), anti-p62(1:1000), anti-p53(1:1000), anti-PAI-1(1:1000) and anti-GAPDH (1:1000).
Cell culture. Primary human AECs from histologically normal and COPD lungs were purchased from ATCC. These cells were cultured in AEC Basal Medium with glutamine, extract P, HLL Supplement, and AEC supplement and 1% penicillin-streptomycin at 37° C. and 5% CO2. AT2 cells were isolated from C57BL/6 mice following the method of Corti and colleagues (Roscioli et al, 2018) with minor modifications. The cells were plated on plastic culture dishes precoated with anti-CD-32 and anti-CD-45 antibodies for 2 h at […]. Non-adherent cells were collected, and the purity of AT2 cell preparations was assessed by […] for inclusion bodies (Shetty et al, 2012).
Peptide preparation. CSP7 and CP were dissolved in DMSO and diluted in HBSS as described elsewhere (Marudamuthu et al., SciTransl Med 11: eaat2848, 2019. doi: 10.1126/scitranslmed.aat2848). These peptides were used to treat AECs in vitro or IP injection of CS-exposed mice. For airway delivery by liquid nebulization, CSP7 (0.579 mg/ml) was added to PBS containing lactose monohydrate (15.456 mg/ml). The pH was adjusted to 8.4 to give a clear solution, filtered through a 0.22-micron syringe filter as described earlier (Marudamuthu et al., 2019.)
Protein extraction and Western blot assay. AEC and AT2 cell lysates were prepared using RIPA buffer (Pierce, USA) containing a protease inhibitor cocktail (Roche, Germany) and phosphatase inhibitor cocktail (Sigma-Aldrich, USA). AEC and AT2 cell lysates were subjected to Western blotting using ERK, MUC5AC, HDAC6, SPDEF, FOXA2, FOXA3, LC3, p53, PAI-1, Acp53, S15p53, cleaved caspase-3, β-galactosidase and R-actin antibodies at 1:500-1:1000 dilution (Table 1). […]

Row | Substance | A2EC p53, PAI-1 and apoptosis [1] | tolerability [2] | Beclin-1 and ATG5 expression (AECs from COPD lungs) | ERK phosphorylation (AECs from COPD lungs) | FOXA2, acetylated alpha-tubulin, CAV1, p53 and PAI-1 proteins (AECs from COPD lungs) | LC3-II accumulation (AECs from COPD lungs) | MMP12 expression (AECs from COPD lungs) | PP2A and CIP2A protein (Western blot) (AECs from COPD lungs) | PP2A mRNA (AECs from COPD lungs) | p62 expression (AECs from COPD lungs) | MUC5AC, HDAC6, PAI-1, p53, Cav1, FOXA3, SPDEF, LC3, FOXA2, Ac-Tub proteins (Western blot) (AECs from COPD lungs; 48 h) | IL-17A induced serine phosphorylation of p53 (p15Sp53) in ATII cells ([1]; IL-17A treated mice, vs saline and control peptide) | effect in miR-34a^cKO mice ([1]; miR34a conditional knockout mice treated with IL-17A) | BALF myeloperoxidase (MPO) activity ([1]; mice with IL-17A or PTS (10 weeks) injury)
1 | DGIWKASFTTFTVTKYWFYR (listed as Homo sapiens) [CSP, 20 residue caveolin-1 scaffolding domain peptide] | reduced A2EC p53, PAI-1 and apoptosis in vivo | well-tolerated |  |  |  |  |  |  |  |  |  |  |  | 
2 | FTTFTVT (listed as Homo sapiens) [CSP7, heptapeptide fragment of the caveolin-1 scaffolding domain peptide CSP] | reduced A2EC p53, PAI-1 and apoptosis in vivo | well-tolerated | mitigate | decrease in ERK phosphorylation; also recorded: reversed in AECs exposed to CSP7 | restoration of FOXA2 and acetylated alpha-tubulin, and inhibition of CAV1, p53 and PAI-1 | reversed | decreased; also recorded: markedly reduced the MMP12 level | reversed | improved | significantly elevated | reversed; also recorded: reduced the expression of MUC5AC, HDAC6, FOXA3, SPDEF and, LC3 | inhibited | little effect | significantly reduced the MPO activity
3 | WGIDKAFFTTSTVTYKWFRY [CP, scrambled control peptide with the same amino acid composition as CSP, reference compound] |  |  |  | still showed elevated phospho-ERK1/2 |  |  |  |  |  |  |  |  |  | 
